This is an account of results in patent publication US9023857B2, “Substituted 6-(2-aminobenzylamino)purine derivatives, their use as medicaments and preparations containing these compounds” (Univerzita Palackeho V Olomouci, priority 2009, dated 2015).

Data set [1] has as its system human T-lymphoblastoid leukaemic cell line CEM. In words: In vitro cytotoxic activity (Calcein AM, 72 hours), CEM. The settings on record: read-out: Cytotoxicity IC50 CEM.
Data set [2] has as its system SV40 large T-antigen in COS-1 cells. In words: Expression from SV40 promoter incorporated in the cellular genome (COS-1 cells). The class given is cell-based. The note with it: COS-1 cells (FIG. 10). The protocol: Cell were detached with rubber policeman and washed three times with ice-cold PBS and lysed in buffer (50 mM Tris, pH 7.4, 250 mM NaCl, 5 mM EDTA, 50 mM NaF, 1 mM Na3VO4, 1% Nonidet P40) containing mixture of protease and phosphatase inhibitors (Sigma-Aldrich St Louis, Mo., USA). 20 μg of total proteins were separated by SDS-polyacrylamide gel electrophoresis (SDS-PAGE) on 8% or 10% gels and transferred onto nitrocellulose membranes. Membranes were blocked in 5% milk and 0.1% Tween 20 in PBS and probed overnight with specific monoclonal antibodies or rabbit polyclonal sera. Primary antibodies specific for RNA polymerase II (all from Santa Cruz Biotechnology, California, USA) included: (i) N-20 used at […] (ii) H14, specific for form phosphorylated at phosphoserine 5, used at 6 μg/ml and (iii) H5, specific for form phosphorylated at phosphoserine 2 used at 4 μg/ml. Additional primary mAb used in immunblots included (iv) anti-p53 (D0-1, in house, […]) used at 1 μg/ml, (v) anti-p21^WAF1 (118, in house), used at 1 μg/ml), (vi) anti-actin (A-2066, Sigma-Aldrich St Louis, Mo., USA) used at 1 μg/ml, (vii) anti-T-antigen (419, in house, Lane), used at 1 μg/ml. All primary antibodies were diluted in PBS containing 5% powdered milk; 0.1% Tween 20. […]

A further data set deals with MV. In words: MV syncytium reduction assay in B95a cells. Format: cell-based, Measles virus wildtype strain WTFb.
In data set [3] the test system is p53 protein in osteosarcoma cell line HOS (mut p53). In words: p53 protein expression in HOS cells (immunoblotting). The class given is cell-based, human. The settings on record: HOS (mutant p53), 5 μM, 6, 12 and 24 hrs. Here is the method:
(a) DO-1, DO-2 and 1801 monoclonal antibodies recognise the N-terminal region of p53 protein, monoclonal antibodies DO-11 and DO-12 recognise different epitopes in the core domain of p53 protein, monoclonal antibodies Bp53-10 and Pab421 recognise the C-terminal region of p53 protein. (b) Monoclonal antibody 118 recognises p21^WAF1.
For direct immunoblotting, total cellular protein lysates were prepared by harvesting cells in hot Laemmli electrophoresis sample buffer. Proteins were then separated by SDS-polyacrylamide gel electrophoresis (SDS-PAGE) on 10% gel and transferred onto a nitrocellulose membrane in Bio.Rad Mini Trans-Blott Electrophoretic Transfer Cell for 2 hrs at 4° C. applying 150 mA in transfer buffer ([…], 190 mM glycine and 20% methanol). Prestained molecular weight markers (Bio-Rad) were run in parallel. […]
First, we determined appropriate concentration of 103 and 105 for our experiments. The MCF-7 (wt p53) cells were treated for 12 hrs with increasing concentrations of 105 ranging from 1 to 100 μM and analysed for p53 protein expression using monoclonal antibody DO-1 (FIG. 3A). […] We analysed the expression of p53 protein in MCF-7 (wt p53), BT549 (mut p53) and BT474 (mut p53) breast cancer cell lines, in HT29 (mut p53) colorectal cancer cell line and in ostaosarcoma cell line HOS (mut p53). […]

Data set [4] deals with HIV promoter integrated into cellular DNA (H1299-HIV cells). In words: β-galactosidase expression from pHIV-lacZ incorporated to cellular genome (H1299-HIV). The settings on record: HIV promoter integrated into cellular DNA (FIG. 11).
Data set [5] has as its system human osteogenic sarcoma HOS. Description: In vitro cytotoxic activity (Calcein AM, 72 hours), HOS. The note with it: read-out: Cytotoxicity IC50 HOS.
The next data set has as its system IV. Format: cell-based, Influenza Virus H1N1 strain A/PR/8/34. The note with it: MDCK cells.
Data set [6] has as its system P388D1 leukemia transplanted intraperitoneally. In words: In vivo anticancer activity, survival model of P388D1 leukemia. The settings on record: DBA-2 mice, orally twice daily 250 mg/kg, Days 1-3 and 7-9. The protocol:
DBA-2 mice were used as a host. One day following the leukemia transplantation, treatment with 105 was initiated. […] Survival analysis of treated animals (10 mice/group) was preformed in comparison with vehicle treated mice using Kaplan-Meier method and the significance was evaluated by the log-rank test. Body weight of experimental animals was evaluated in parallel in order to reflect toxicity and efficacy of therapy. Comparative analysis of body weight was performed using […].

For the compound `CCC(CO)Nc1nc(NCc2ccccc2N)c2ncn(C(C)C)c2n1` (stereo not shown) [Compound 105, 2-({6-[(2-aminobenzyl)amino]-9-isopropyl-9H-purin-2-yl}amino)butan-1-ol], the results for the 50% inhibitory concentration (IC50) in data set [1] and in data set [5] were 4.5 µM and 11 µM, respectively. Besides, in data set [2], the “large T-antigen expression” value was “stimulated large T-antigen expression”. In addition, the “inhibition of virus replication (in words)” value in the data set with MV and in the data set on IV was “ineffective” in each case. Also, the “induction of p53” value in data set [3] is listed as “No induction”. In addition, in data set [4], the “increase of reporter readout” value is 4 times. The “body weight of treated animals” value in data set [6] is recorded as “reducing body weight”. The mean survival time in data set [6] amounted to 15.4 days. Further, the “survival analysis (Kaplan-Meier, log-rank)” value in data set [6] (P=0.0409 versus vehicle) was “significantly better survival”.
